In one series the target is Interleukin-15 (Homo sapiens, UniProt P40933). The series is described as follows: Binding affinity to IL-15 (unknown origin) assessed as dissociation constant by fluorescence polarization assay.
The species entered for the next series is Homo sapiens. The series is described as follows: Ratio of Kd for binding affinity to human recombinant GCPIII assessed as dissociation constant by fluorescence polarization assay to Kd for binding affinity to human recombinant PSMA assessed as dissociation constant by fluorescence polarization assay. In general terms: Polarisation of emitted light reports the rotation of a fluorescent probe.

Series [1] deals with Albumin (Rattus norvegicus, UniProt P02770). Nature of the series: Binding affinity to rat serum albumin by fluorescence polarization assay.
Sequence of Albumin (Rattus norvegicus, UniProt P02770) (P02770 whole entry): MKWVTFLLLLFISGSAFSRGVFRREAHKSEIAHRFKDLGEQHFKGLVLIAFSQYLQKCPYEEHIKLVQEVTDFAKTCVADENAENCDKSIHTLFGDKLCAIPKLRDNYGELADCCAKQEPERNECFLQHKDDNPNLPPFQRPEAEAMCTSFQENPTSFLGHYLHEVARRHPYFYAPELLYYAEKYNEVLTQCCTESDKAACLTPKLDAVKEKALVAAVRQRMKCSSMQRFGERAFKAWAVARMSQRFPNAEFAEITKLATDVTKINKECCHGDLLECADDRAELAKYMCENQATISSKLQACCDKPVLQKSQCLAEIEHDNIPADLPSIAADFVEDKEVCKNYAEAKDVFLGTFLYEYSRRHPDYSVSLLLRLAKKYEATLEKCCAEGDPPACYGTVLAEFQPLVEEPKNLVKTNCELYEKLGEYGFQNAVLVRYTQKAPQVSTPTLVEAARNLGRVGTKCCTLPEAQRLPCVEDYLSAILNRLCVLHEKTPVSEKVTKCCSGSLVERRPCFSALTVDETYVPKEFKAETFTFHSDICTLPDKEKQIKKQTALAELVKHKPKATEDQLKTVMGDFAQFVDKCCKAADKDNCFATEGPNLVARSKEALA
In series [2] the target is T1, Prolyl endopeptidase FAP (Homo sapiens, UniProt Q12884).
T1 sequence (Q12884 whole entry): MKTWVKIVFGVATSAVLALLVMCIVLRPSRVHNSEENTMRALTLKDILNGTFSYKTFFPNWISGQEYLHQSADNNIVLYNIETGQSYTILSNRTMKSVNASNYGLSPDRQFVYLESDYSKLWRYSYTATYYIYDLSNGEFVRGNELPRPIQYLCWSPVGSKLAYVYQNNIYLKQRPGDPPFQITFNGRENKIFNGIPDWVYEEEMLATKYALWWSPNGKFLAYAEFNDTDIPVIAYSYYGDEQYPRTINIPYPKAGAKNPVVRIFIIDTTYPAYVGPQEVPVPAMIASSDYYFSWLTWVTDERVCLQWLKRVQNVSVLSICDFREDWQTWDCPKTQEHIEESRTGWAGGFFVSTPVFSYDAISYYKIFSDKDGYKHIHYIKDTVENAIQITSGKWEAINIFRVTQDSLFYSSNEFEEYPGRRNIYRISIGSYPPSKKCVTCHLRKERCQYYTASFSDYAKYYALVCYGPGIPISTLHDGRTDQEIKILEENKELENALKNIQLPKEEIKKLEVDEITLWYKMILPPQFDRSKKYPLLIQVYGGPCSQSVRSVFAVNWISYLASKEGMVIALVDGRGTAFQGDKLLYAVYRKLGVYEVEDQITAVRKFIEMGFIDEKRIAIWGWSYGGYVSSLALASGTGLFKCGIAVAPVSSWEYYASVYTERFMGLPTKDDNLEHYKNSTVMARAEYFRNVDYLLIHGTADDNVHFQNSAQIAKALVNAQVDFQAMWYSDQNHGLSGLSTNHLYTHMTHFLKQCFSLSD
Nature of the series: Binding affinity to human FAP assessed as dissociation constant by fluorescence polarization assay.

In series [3] the target is Urokinase-type plasminogen activator (Homo sapiens, UniProt P00749). The series is described as follows: Binding affinity to Urokinase (unknown origin) assessed as dissociation constant by fluorescence polarization assay.
In series [4] the target is T2, N-acetylated-alpha-linked acidic dipeptidase 2 (Homo sapiens, UniProt Q9Y3Q0). Nature of the series: Binding affinity to human recombinant GCPIII assessed as dissociation constant by fluorescence polarization assay.
Target sequence in this assay (Q9Y3Q0 whole entry): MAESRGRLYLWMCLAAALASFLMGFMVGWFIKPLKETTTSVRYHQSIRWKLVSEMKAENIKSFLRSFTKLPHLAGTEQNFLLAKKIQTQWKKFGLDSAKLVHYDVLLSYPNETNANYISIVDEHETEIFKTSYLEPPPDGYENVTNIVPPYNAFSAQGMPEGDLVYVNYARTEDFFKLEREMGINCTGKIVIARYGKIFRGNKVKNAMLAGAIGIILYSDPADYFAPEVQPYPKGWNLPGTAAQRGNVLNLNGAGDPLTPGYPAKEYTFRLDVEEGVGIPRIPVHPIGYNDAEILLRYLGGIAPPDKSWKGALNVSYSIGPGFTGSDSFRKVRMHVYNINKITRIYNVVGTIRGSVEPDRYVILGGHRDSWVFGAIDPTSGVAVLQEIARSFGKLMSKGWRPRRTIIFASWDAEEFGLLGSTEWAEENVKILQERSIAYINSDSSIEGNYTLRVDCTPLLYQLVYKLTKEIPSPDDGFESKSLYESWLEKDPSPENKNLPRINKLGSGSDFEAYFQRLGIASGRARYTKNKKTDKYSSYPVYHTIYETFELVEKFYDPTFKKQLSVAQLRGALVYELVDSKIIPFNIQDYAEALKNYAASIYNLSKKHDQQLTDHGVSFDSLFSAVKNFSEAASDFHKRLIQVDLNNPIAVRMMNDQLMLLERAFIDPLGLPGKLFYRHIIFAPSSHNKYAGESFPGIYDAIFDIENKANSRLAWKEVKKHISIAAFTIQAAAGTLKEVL
Series [5] concerns the target Immunoglobulin heavy constant gamma 4 (Homo sapiens) (UniProt P01861). The series is described as follows: Binding affinity to IgG4 (unknown origin) by fluorescence polarization assay.
Series [6] has as its target Carbonic anhydrase 2 (Homo sapiens) (UniProt P00918). The series is described as follows: Binding affinity to Carbonic anhydrase II (unknown origin) by fluorescence polarization assay.
Series [7] deals with Albumin (Oryctolagus cuniculus, UniProt P49065). Nature of the series: Binding affinity to rabbit serum albumin by fluorescence polarization assay.
Sequence of Albumin (Oryctolagus cuniculus, UniProt P49065) (P49065 whole entry): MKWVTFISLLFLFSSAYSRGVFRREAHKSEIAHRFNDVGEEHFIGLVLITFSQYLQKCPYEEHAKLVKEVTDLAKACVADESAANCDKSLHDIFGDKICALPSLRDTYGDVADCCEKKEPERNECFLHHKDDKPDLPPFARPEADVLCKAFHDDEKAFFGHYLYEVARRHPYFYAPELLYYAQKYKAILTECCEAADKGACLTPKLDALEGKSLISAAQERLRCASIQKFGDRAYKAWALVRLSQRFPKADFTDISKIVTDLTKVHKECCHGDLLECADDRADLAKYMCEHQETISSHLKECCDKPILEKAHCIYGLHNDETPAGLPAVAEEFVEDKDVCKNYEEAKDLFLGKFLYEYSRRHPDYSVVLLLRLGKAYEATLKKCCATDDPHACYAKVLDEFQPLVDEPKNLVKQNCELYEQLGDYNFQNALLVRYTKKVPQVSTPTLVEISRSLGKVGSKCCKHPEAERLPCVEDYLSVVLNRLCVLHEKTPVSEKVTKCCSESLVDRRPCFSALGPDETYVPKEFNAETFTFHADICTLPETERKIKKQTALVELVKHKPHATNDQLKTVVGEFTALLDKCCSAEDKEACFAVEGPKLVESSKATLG
The target in series [8] is Albumin (Homo sapiens, UniProt P02768). Nature of the series: Binding affinity to human serum albumin by fluorescence polarization assay.
Sequence of Albumin (Homo sapiens, UniProt P02768) (P02768 whole entry): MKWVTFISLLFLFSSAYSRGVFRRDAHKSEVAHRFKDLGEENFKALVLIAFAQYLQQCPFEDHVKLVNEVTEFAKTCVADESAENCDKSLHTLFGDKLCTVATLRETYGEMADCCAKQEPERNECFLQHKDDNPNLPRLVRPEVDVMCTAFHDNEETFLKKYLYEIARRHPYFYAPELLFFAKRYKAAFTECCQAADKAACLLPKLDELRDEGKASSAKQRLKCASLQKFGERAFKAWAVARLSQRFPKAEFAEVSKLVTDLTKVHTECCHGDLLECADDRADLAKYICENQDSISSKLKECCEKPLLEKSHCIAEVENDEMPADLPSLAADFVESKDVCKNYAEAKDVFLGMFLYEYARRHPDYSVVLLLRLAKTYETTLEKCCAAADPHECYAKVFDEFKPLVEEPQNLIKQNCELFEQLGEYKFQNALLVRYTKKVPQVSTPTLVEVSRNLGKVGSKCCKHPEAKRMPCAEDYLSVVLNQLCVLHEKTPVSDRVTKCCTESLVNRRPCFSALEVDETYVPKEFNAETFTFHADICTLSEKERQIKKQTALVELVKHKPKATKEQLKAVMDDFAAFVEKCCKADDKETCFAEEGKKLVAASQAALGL
The target in series [9] is T3, Glutamate carboxypeptidase 2 (Homo sapiens, UniProt Q04609). The series is described as follows: Displacement of [177Lu]LU-PSMA-617 from PSMA in human salivary gland assessed as residual activity at 10 uM incubated for 1 hr by autoradiography analysis relative to control. In kind it is tissue-based.
Target sequence in this assay (Q04609 whole entry, looked up): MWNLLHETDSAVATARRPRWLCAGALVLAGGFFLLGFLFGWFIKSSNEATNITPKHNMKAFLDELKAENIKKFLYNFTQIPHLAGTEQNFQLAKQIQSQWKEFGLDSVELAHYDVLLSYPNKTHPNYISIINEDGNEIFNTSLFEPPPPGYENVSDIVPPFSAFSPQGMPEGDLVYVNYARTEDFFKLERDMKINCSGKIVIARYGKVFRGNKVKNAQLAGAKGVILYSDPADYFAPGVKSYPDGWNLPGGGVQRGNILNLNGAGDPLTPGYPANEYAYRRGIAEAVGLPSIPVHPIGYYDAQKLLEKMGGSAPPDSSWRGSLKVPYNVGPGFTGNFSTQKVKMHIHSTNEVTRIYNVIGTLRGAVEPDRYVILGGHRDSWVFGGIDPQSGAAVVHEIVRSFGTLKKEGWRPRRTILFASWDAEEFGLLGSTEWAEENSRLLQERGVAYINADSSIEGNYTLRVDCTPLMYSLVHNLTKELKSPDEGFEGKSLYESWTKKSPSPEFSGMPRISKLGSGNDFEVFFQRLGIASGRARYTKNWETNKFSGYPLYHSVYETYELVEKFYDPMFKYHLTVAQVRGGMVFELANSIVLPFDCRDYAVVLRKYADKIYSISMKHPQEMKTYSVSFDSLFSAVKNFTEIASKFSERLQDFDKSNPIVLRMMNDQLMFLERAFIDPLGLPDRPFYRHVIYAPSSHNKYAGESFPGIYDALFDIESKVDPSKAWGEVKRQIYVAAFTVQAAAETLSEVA
In series [10] the target is Stromelysin-1 (Homo sapiens) (UniProt P08254). The series is described as follows: Binding affinity to MMP3 (unknown origin) by fluorescence polarization assay.
Sequence of Stromelysin-1 (Homo sapiens) (P08254 100-477 limits assumed): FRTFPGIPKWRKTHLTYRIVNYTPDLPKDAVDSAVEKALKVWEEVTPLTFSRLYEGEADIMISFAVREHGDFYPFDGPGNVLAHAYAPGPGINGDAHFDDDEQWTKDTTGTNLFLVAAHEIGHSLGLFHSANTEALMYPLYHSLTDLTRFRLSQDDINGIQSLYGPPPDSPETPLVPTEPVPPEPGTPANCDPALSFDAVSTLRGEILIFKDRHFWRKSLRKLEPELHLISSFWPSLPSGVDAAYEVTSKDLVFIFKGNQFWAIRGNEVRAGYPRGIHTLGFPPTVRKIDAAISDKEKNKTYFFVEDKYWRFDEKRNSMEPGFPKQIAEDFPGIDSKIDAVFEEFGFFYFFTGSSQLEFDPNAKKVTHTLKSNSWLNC
Series [11] addresses Albumin (Macaca fascicularis, UniProt A2V9Z4). The series is described as follows: Binding affinity to cynomolgus serum albumin by fluorescence polarization assay. To be noted: cynomolgus monkey.
In series [12] the target is Albumin (Bos taurus, UniProt P02769). Nature of the series: Binding affinity to bovine serum albumin by fluorescence polarization assay.
Sequence of Albumin (Bos taurus, UniProt P02769) (P02769 whole entry): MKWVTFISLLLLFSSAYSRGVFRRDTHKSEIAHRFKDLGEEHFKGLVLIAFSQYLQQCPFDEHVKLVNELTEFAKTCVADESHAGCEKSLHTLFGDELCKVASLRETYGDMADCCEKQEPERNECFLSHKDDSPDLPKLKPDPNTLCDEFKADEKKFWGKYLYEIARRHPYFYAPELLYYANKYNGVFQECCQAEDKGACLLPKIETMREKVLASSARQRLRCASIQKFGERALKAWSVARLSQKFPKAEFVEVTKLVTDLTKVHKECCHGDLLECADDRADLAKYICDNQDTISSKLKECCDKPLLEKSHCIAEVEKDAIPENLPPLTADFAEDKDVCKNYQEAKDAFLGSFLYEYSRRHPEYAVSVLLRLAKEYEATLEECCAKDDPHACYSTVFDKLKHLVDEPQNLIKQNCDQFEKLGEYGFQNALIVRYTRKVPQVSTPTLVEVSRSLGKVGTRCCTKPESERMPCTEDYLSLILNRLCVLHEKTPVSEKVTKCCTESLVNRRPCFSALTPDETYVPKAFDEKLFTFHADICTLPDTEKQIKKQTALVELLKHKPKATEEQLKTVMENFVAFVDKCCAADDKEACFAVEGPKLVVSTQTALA
Series [13] addresses Natural cytotoxicity triggering receptor 1 (Homo sapiens, UniProt O76036). The series is described as follows: Binding affinity to NKp46 (unknown origin) assessed as dissociation constant by fluorescence polarization assay.
Series [14] has as its target T4, Prolyl endopeptidase FAP (Mus musculus, UniProt P97321).
T4 sequence (P97321 whole entry): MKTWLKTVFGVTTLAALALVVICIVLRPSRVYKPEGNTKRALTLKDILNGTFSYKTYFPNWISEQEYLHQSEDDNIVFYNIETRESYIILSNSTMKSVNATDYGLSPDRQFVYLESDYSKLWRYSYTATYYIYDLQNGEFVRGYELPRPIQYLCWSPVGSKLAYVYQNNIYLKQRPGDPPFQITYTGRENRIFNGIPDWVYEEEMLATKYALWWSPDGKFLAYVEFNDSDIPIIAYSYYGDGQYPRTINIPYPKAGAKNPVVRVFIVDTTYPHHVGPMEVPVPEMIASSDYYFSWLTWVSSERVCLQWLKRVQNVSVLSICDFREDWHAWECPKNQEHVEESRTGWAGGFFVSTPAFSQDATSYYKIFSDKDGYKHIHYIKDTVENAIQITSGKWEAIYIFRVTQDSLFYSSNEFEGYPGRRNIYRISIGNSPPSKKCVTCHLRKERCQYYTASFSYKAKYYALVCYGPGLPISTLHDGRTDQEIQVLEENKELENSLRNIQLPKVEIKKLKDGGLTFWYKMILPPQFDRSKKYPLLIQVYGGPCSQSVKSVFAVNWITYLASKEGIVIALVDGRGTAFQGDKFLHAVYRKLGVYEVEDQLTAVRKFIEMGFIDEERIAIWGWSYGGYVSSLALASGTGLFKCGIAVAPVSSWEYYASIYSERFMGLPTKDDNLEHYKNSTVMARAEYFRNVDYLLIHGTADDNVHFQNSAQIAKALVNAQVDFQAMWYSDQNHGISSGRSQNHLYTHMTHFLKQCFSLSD
Nature of the series: Binding affinity to mouse FAP assessed as dissociation constant by fluorescence polarization assay.

Series [15] in a line: Binding affinity to IL-9 receptor (unknown origin) assessed as dissociation constant by fluorescence polarization assay. Set-up: species or system Homo sapiens.
Series [16] concerns the target T3, Glutamate carboxypeptidase 2. The series is described as follows: Binding affinity to human recombinant PSMA assessed as dissociation constant by fluorescence polarization assay.
Target sequence in this assay (Q04609 whole entry): as the sequence (Q04609 whole entry, looked up) above
Series [17] deals with T2, N-acetylated-alpha-linked acidic dipeptidase 2. The series is described as follows: Displacement of [177Lu]LU-PSMA-617 from human […] at 10 to 100 uM incubated for 15 mins by manual size-exclusion chromatography analysis. Conditions: dose 10-100 µM. A general note: Size exclusion chromatography separates by hydrodynamic size, large species first.
Target sequence in this assay (Q9Y3Q0 whole entry, looked up): as the sequence (Q9Y3Q0 whole entry) above
Series [18] deals with T3, Glutamate carboxypeptidase 2. The series is described as follows: Displacement of [177Lu]LU-PSMA-617 from PSMA in human HT-1080 cells by autoradiography analysis. In kind it is cell-based. To be noted: dose 0.6-50 µM.
Target sequence in this assay (Q04609 whole entry, looked up): as the sequence (Q04609 whole entry, looked up) above

The structures appear in SMILES notation. Calls of active or inactive are those of the source. The rule behind the calls is not given here.

Sequence of Immunoglobulin heavy constant gamma 4 (Homo sapiens) (P01861 whole entry): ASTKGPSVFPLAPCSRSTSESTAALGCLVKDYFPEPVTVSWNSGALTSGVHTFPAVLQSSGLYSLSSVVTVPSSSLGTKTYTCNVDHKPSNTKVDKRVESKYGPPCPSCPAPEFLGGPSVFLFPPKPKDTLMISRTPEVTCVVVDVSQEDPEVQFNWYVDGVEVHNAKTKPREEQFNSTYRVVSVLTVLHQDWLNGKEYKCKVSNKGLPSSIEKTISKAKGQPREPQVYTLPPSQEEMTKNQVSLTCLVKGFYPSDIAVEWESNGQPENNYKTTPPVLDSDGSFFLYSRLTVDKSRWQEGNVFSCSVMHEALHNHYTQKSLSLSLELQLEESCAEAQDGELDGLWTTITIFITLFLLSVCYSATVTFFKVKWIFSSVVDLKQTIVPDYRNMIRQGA
Sequence of Interleukin-15 (P40933 whole entry): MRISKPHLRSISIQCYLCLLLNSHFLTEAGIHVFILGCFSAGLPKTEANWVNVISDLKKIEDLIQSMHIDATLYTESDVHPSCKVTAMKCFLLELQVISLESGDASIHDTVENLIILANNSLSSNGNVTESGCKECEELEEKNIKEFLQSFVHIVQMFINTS

As to `O=C(N[C@@H]1C[C@@H](C(=O)N[C@@H](CCCCNC(=S)Nc2ccc3c(c2)C(=O)OC32c3ccc(O)cc3Oc3cc(O)ccc32)C(=O)O)N(C(=O)c2cnoc2C2CC2)C1)c1c[nH]nn1`, the Kd (usually the constant that tells how readily two partners part at equilibrium) is above 5 µM at Interleukin-15; above 1.5 µM on Prolyl endopeptidase FAP [2]; above 9.5 µM in series [3]; 0.014 µM in series [4]; 4.5 µM on Albumin [12]; above 3.3 µM in [13]. Moreover, the Kd was above 0.7 µM at Prolyl endopeptidase FAP [14], above 7.5 µM in series [15] and above 0.002 µM in series [16]. Also, the Ratio in the series filed under Homo sapiens is 100. Besides, the Activity result at Albumin [1] was “Not Active”; on Albumin [7], “Not Active”; at Albumin [8] it was “Not Active”; in series [9], 39%; at Albumin [11], “Not Active”. Also, the result in series [5], in [6] and in series [10] was inactive.

For `O=C(N[C@@H]1C[C@@H](C(=O)N[C@@H](CNC(=S)Nc2ccc3c(c2)C(=O)OC32c3ccc(O)cc3Oc3cc(O)ccc32)C(=O)O)N(C(=O)c2c[nH]nn2)C1)c1c[nH]nn1`, the outcome in [17] was Active. Also, the Kd was 0.0017 µM in [4] and above 1 µM in [16]. The Activity entry in [18] was “Dose-Dependent Effect”; in series [9], 14%.
